Data from publication PMC9886550, “Molecular mechanism of topoisomerase poisoning by the peptide antibiotic albicidin” (Nature Catalysis, 2023).

Experiments:
E. coli gyrase GyrA^D72N = molecular target: T1, E. coli gyrase GyrA^D72N (Escherichia coli, UniProt P0AES4+P0AES6); format: biochemical; details: in words
T1 construct: alternative cryo-EM approach involving full-length E. coli gyrase; 10-His (cleaved yes); Twin-Strep (cleaved yes); made in house
Procedure: For DNA gyrase supercoiling assays to characterize gyrase mutants, 15 µl reactions were set up containing 250 ng of relaxed DNA, E. coli gyrase supercoiling buffer (35 mM Tris–Cl pH 7.5, 24 mM KCl, 4 mM MgCl2, 2 mM DTT, 1.8 mM spermidine, 1 mM ATP, 6.0% (w/v) glycerol, and 0.1 mg ml^−1 BSA), gyrase subunits and inhibitors. Concentrations of enzyme and inhibitor are stated in the figure legends. Inhibitors were diluted in the following way to reduce the chance of precipitation: stock compound in 100% DMSO was diluted to 5 mM in 100% DMSO. This compound solution was diluted to 1 mM by stepwise addition of 1 µl of 50% DMSO with thorough mixing via pipetting after each addition. All subsequent dilutions up to 100 µM were performed in the same way using H2O. After this point, compounds were stable and could be diluted in the normal way. Reactions were incubated at 37 °C for 30 min before stopping with 15 µl chloroform:isoamyl alcohol (24:1 v/v) and 15 µl of STEB (40% (w/v) sucrose, 100 mM Tris–Cl pH 8, 10 mM EDTA, 0.5 mg ml^−1 bromophenol blue).
Cleavage assays were set up in the same way as supercoiling assays with some modifications. The concentration of enzyme was increased 4-fold relative to the supercoiling assay and reactions were incubated for 1 h before addition of 0.2% SDS and proteinase K (0.2 mg ml^−1) and further incubation at 37 °C for 30 min to trap cleavage complexes. […]

DNA gyrase = DNA gyrase supercoiling inhibition assay (initial IC50 determination); format: biochemical, E. coli; details: vs Albi-3
Procedure: For initial compound IC50 determination, DNA supercoiling experiments with DNA gyrase were performed in a total volume of 30 μl of gyrase buffer (Inspiralis). The reactions contained 500 ng relaxed pBR322 plasmid DNA, 1.5 U DNA gyrase (6 U μl^−1) and albicidin derivatives at a final concentration of between 2.5 and 320 nM. The final DMSO concentration used was 3%. Samples were incubated at 37 °C for 30 min and subsequently loaded on an agarose gel. Electrophoretic analysis was performed using a 1% agarose gel (100 V, 90 min). DNA bands were stained with ethidium bromide and subsequently quantified using ImageJ 1.53k software.
Extended Data Fig. 8 Inhibition of supercoiling by Albi-1/2/3. a. Chemical structures of Albi-1, Albi-2 and Albi-3. b. Example supercoiling inhibition assay gels: Albi-1, decreasing concentrations (320, 160, 80, 40, 20, 10, 5, 2.5 nM); Albi-2 (320, 160, 80, 40, 20 nM); Albi-3 (960, 800, 640, 480, 320, 160, 80, 40 nM). First lane - relaxed pBR322; second lane - DNA gyrase. 40 nM albicidin was used as positive control (third lane). Different concentrations were tested and representative gels are shown.

E. coli gyrase = molecular target: T2, E. coli gyrase (Escherichia coli, UniProt P0AES4+P0AES6); assay: Gyrase cleavage of linear DNA fragments (Mu217 and others); format: biochemical; details: 1 µM albicidin
T2 construct: alternative cryo-EM approach involving full-length E. coli gyrase; 10-His (cleaved yes); Twin-Strep (cleaved yes); made in house
Procedure: Mu217 DNA (25 nM) was incubated with 0.4 µM gyrase and indicated concentrations (1 or 10 µM) of diazirine-labelled albicidin (photo-Albi, φAlbi) in a volume of 20 µl (~70 ng DNA) at 37 °C for 30 min in gyrase cleavage buffer (see section 'Topoisomerase assays'). For CFX competition experiments, 30 µM CFX was added first, followed by the albicidin. Reactions were either irradiated with ultraviolet 365 nm (benchtop transilluminator) with cooling (ice) for 30 min or left on ice for 30 min (‘dark’). Then, 0.2% SDS and 0.2 mg ml^−1 proteinase K were added to both samples, which were incubated for another 30 min. Reactions were mixed with loading dye (STEB) and chloroform:isoamyl alcohol (24:1 v/v) before vortexing and centrifugation. The aqueous phase was loaded on 4–20% TBE (Tris–borate–EDTA) polyacrylamide gel (Thermo) and ran for 1 h at 150 V. DNA was visualized with SYBR Gold (Thermo) staining.
Extended Data Fig. 1 Length dependency of albicidin-mediated DNA cleavage. Position of cleaved DNA indicated by arrows and red dots. ATP and ADPNP were added as indicated, (----) stands for no nucleotide added. 20 nM gyrase, 1 µM albicidin and 25 nM DNA was used in each reaction.
Extended Data Fig. 5 Photocrosslinking of diazirine-labelled albicidin (photo-Albi) to the DNA. a. Structures of N-terminal photo-Albi and control compound. b. DNA cleavage assay with Mu217 fragment and indicated concentrations of compounds. The labelled DNA band appearing upon irradiation of a photo-compound when bound to the complex is marked by a yellow star. c. Ciprofloxacin competition experiment. Pre-incubation with excess CFX prevents albicidin binding and crosslinking. Details of the experiment are available in Methods section.

| Structure (SMILES) | resistance of the variant judged by the CC50 (E. coli gyrase GyrA^D72N) | better activity in the gyrase inhibition assay than Albi-3 (DNA gyrase) | cleavage of DNA fragments (E. coli gyrase; fragments shorter than 150 bp or absence of a nucleotide) | cleavage of the 217 bp Mu SGS fragment (Mu217) (E. coli gyrase; in the presence of ATP or ADPNP) |
| --- | --- | --- | --- | --- |
| CC(C)Oc1c(NC(=O)c2ccc(NC(=O)[C@H](Cc3c[nH]nn3)NC(=O)c3ccc(NC(=O)c4ccc(C#N)cc4)cn3)cn2)ccc(C(=O)Nc2ccc(C(=O)O)cc2)c1O [Albi-1] | did not show increased resistance |  |  |  |
| COc1c(NC(=O)c2ccc(NC(=O)c3ccc(NC(=O)[C@H](Cc4c[nH]nn4)NC(=O)c4ccc(NC(=O)c5ccc6cc(O)ccc6c5)cc4)cn3)c(OCCN)c2O)ccc(C(=O)O)c1O [Albi-2] |  | ~ 4 fold |  |  |
| COc1c(NC(=O)c2ccc(NC(=O)c3ccc(NC(=O)[C@H](CC#N)NC(=O)c4ccc(NC(=O)/C(C)=C/c5ccc(O)cc5)cc4)cc3)c(OC)c2O)ccc(C(=O)O)c1O [Albicidin] | did not show increased resistance |  | almost no cleavage | strong cleavage |
